According to patent publication US8486965B2, “Pyrrolo[2,3-b]pyridine derivative and use thereof for treatment of cancer” (Takeda Pharmaceutical Company Limited, priority 2009, dated 2013):

Test system: Hedgehog signal transduction system (Smo)
Experiment: Gli reporter luciferase assay in NIH-3T3/Gli reporter cells stimulated with mouse Shh-N end fragment
Assay type: cell-based
Conditions: NIH3T3; 1 μM compound; NIH-3T3/Gli reporter cells with mouse Shh-N end fragment culture supernatant, 48 hr; luciferase activity, control without compound as 100; read-out: inhibition rate (%) at 1 μM
Source text: Inhibition of the Hedgehog signal transduction system can be measured, for example, by quantifying a decrease in the expression level of a reporter gene connected to the downstream of the Gli binding site based on the fluorescence intensity according to the following Experimental Example 1. Alternatively, it can be measured by quantifying the expression of Gli-1 mRNA in a cell extract by quantitative PCR method and the like. A compound that inhibits Hedgehog signal targets Smo, which can be confirmed, for example, by binding fluorescence-labeled Cyclopamine and a test compound to cells expressing Smo, measuring the fluorescence level of the cell, and comparing the value with that without addition of a test compound to find a decrease.
Gli reporter plasmid was constructed by inserting 8×Gli-binding site and chicken δ-crystalline promoter into the upstream of luc+ of pGL3 (Promega).
prepared in reference to the base sequence described in GenBank accession No.; X02187, and chicken genome DNA (Clontech) as a template. PCR reaction was performed using Pfu Turbo (Stratagene) and following the attached protocol. The obtained 108 bp fragment was digested with restriction enzymes BglII and HindIII, and inserted into BglII-HindIII site of pGL3 to give plasmid pGL3/δ-cry promoter.
As 8× Gli-binding site, a sequence containing eight 9-bp Gli bound consensus sequences (GACCACCCA) described in Yoon et al., J. Biol. Chem., vol. 273, pages 3496-3501 (1998) was prepared from synthetic DNA. That is, two synthetic DNAs,
were heat treated at 95° C. for 2 minutes, and incubated at 37° C. for 1 hr for annealing to give a double stranded DNA of the above-mentioned two synthetic DNAs. The obtained double stranded DNA was digested with restriction enzymes BglII and KpnI, and the obtained DNA fragment was inserted into BglII-KpnI site of pGL3/δ-cry promoter to construct plasmid pGL3/δ-cry promoter, 8× Gli binding site, i.e., Gli reporter plasmid. 2. Construction of Plasmid for Expression of Mouse Shh-N End Fragment
As a material for construction of plasmid for Shh-N end fragment expression, mouse Shh cDNA was cloned at first.
The mouse Shh cDNA was cloned by Nested PCR method using mouse 11-day fetus cDNA (Clontech) as a template. The primer sequence was prepared in reference to the base sequence described in GenBank accession No.; NM_009170.
Using the mouse Shh cDNA sequence obtained as mentioned above as a template, a partial cDNA sequence wherein stop codon (TGA) was added to 3′-terminal of cDNA sequence encoding 1st to 198th amino acid sequence of mouse Shh was obtained by PCR method. As the primer set,
In the manner mentioned above, a plasmid for mouse Shh-N end fragment expression, pcDNA3.1/mShh-N, was constructed.
HEK293 cells were grown in D-MEM medium (Invitrogen) containing 10% fetal bovine serum in a 10 cm dish and pcDNA3.1/mShh-N was introduced into the cells using FuGENE6 (Roche Applied Science). Thereafter, the HEK293 cells were cultured in a carbon dioxide gas incubator at 37° C. for 24 hours, and the medium was exchanged with D-MEM medium (Invitrogen) containing 2% fetal bovine serum. After culturing for 48 hr, culture supernatant containing recombinant type mouse Shh-N end fragment was obtained by filtration using a filter ([…]).
Using D-MEM (Invitrogen) containing 10% fetal bovine serum, expression plasmid pcDNA3:1 and Gli reporter plasmid (pGL3/δ-cry promoter, 8× Gli binding site) produced by the method of Experimental Example 1 were introduced into NIH-3T3 cells grown in a 10 cm dish by the use of FuGENE6 (Roche Applied Science).
After culture for 24 hr, the cells were recovered, suspended in D-MEM medium containing 10% fetal bovine serum and supplemented with Geneticin (Life Technologies Oriental, Inc.) to a final concentration of 500 μg/ml, diluted to 10^4 cells/ml, plated on a 96 well plate, and cultured in a carbon dioxide gas incubator at 37° C. to give Geneticin resistant transformed cell line. […]

Point of comparison: `CCc1nc2c(cc1NC(=O)c1ccsc1)c(OCC(F)(F)F)c(C(=O)NC1CCN(C(=O)CO)CC1)n2C` [Example 50, 6-ethyl-N-[1-(hydroxyacetyl)piperidin-4-yl]-1-methyl-5-[(thiophen-3-ylcarbonyl)amino]-3-(2,2,2-trifluoroethoxy)-1H-pyrrolo[2,3-b]pyridine-2-carboxamide], inhibition at 1 µM 94%. Against it:
- CCc1nc2c(cc1NC(=O)c1ccccc1)c(OCC(F)(F)F)c(C(=O)N[C@H]1CC[C@H](O)CC1)n2C [Example 37, 6-ethyl-N-(trans-4-hydroxycyclohexyl)-1-methyl-5-[(phenylcarbonyl)amino]-3-(2,2,2-trifluoroethoxy)-1H-pyrrolo[2,3-b]pyridine-2-carboxamide] — lower, 87%
- CCOc1c(C(=O)NC2CCN(C(=O)CO)CC2)n(C)c2nc(CC)c(NC(=O)c3ccc(F)cc3)cc12 [Example 39, 3-ethoxy-6-ethyl-5-{[(4-fluorophenyl)carbonyl]amino}-N-[1-(hydroxyacetyl)piperidin-4-yl]-1-methyl-1H-pyrrolo[2,3-b]pyridine-2-carboxamide] — higher, 96%
- CCc1nc2c(cc1NC(=O)c1ccccc1)c(OCC(F)(F)F)c(C(=O)NC1CCS(=O)(=O)CC1)n2C [Example 40, N-(1,1-dioxidotetrahydro-2H-thiopyran-4-yl)-6-ethyl-1-methyl-5-[(phenylcarbonyl)amino]-3-(2,2,2-trifluoroethoxy)-1H-pyrrolo[2,3-b]pyridine-2-carboxamide] — higher, 97%
- CCc1nc2c(cc1NC(=O)c1ccccc1)c(OCC(F)(F)F)c(C(=O)NC1CC[S+]([O-])CC1)n2C (centres unmarked) [Example 41, 6-ethyl-1-methyl-N-(1-oxidotetrahydro-2H-thiopyran-4-yl)-5-[(phenylcarbonyl)amino]-3-(2,2,2-trifluoroethoxy)-1H-pyrrolo[2,3-b]pyridine-2-carboxamide] — higher, 96%
- CCc1nc2c(cc1NC(=O)c1ccccn1)c(OCC(F)(F)F)c(C(=O)NC1CCN(C(=O)CO)CC1)n2C [Example 42, 6-ethyl-N-[1-(hydroxyacetyl)piperidin-4-yl]-1-methyl-5-[(pyridin-2-ylcarbonyl)amino]-3-(2,2,2-trifluoroethoxy)-1H-pyrrolo[2,3-b]pyridine-2-carboxamide] — lower, 92%
- CCOc1c(C(=O)NC2CCN(C(=O)CO)CC2)n(C)c2nc(CC)c(NC(=O)c3ccccc3)cc12 [Example 45, 3-ethoxy-6-ethyl-N-[1-(hydroxyacetyl)piperidin-4-yl]-1-methyl-5-[(phenylcarbonyl)amino]-1H-pyrrolo[2,3-b]pyridine-2-carboxamide] — higher, 98%
- Cc1nc2c(cc1NC(=O)c1ccccc1)c(OCC(F)(F)F)c(C(=O)NC1CCN(C(=O)CO)CC1)n2C [Example 47, N-[1-(hydroxyacetyl)piperidin-4-yl]-1,6-dimethyl-5-[(phenylcarbonyl)amino]-3-(2,2,2-trifluoroethoxy)-1H-pyrrolo[2,3-b]pyridine-2-carboxamide] — higher, 97%
- Cc1nc2c(cc1NC(=O)c1ccc(F)cc1)c(OCC(F)(F)F)c(C(=O)NC1CCN(C(=O)CO)CC1)n2C [Example 48, 5-{[(4-fluorophenyl)carbonyl]amino}-N-[1-(hydroxyacetyl)piperidin-4-yl]-1,6-dimethyl-3-(2,2,2-trifluoroethoxy)-1H-pyrrolo[2,3-b]pyridine-2-carboxamide] — higher, 97%
- CCc1nc2c(cc1NC(=O)c1cccs1)c(OC(C)C)c(C(=O)NC1CCN(C(=O)CO)CC1)n2C [Example 51, 6-ethyl-N-[1-(hydroxyacetyl)piperidin-4-yl]-1-methyl-3-(1-methylethoxy)-5-[(thiophen-2-ylcarbonyl)amino]-1H-pyrrolo[2,3-b]pyridine-2-carboxamide] — the same, 94%
- CCc1nc2c(cc1NC(=O)c1ccco1)c(OCC(F)(F)F)c(C(=O)NC1CCN(C(=O)CO)CC1)n2C [Example 52, 6-ethyl-5-[(furan-2-ylcarbonyl)amino]-N-[1-(hydroxyacetyl)piperidin-4-yl]-1-methyl-3-(2,2,2-trifluoroethoxy)-1H-pyrrolo[2,3-b]pyridine-2-carboxamide] — the same, 94%
- CCc1nc2c(cc1NC(=O)c1cncs1)c(OCC(F)(F)F)c(C(=O)NC1CCN(C(=O)CO)CC1)n2C [Example 53, 6-ethyl-N-[1-(hydroxyacetyl)piperidin-4-yl]-1-methyl-5-[(1,3-thiazol-5-ylcarbonyl)amino]-3-(2,2,2-trifluoroethoxy)-1H-pyrrolo[2,3-b]pyridine-2-carboxamide] — higher, 95%
- CCc1nc2c(cc1NC(=O)c1ccoc1)c(OCC(F)(F)F)c(C(=O)NC1CCN(C(=O)CO)CC1)n2C [Example 54, 6-ethyl-5-[(furan-3-ylcarbonyl)amino]-N-[1-(hydroxyacetyl)piperidin-4-yl]-1-methyl-3-(2,2,2-trifluoroethoxy)-1H-pyrrolo[2,3-b]pyridine-2-carboxamide] — higher, 99%
- CCc1nc2c(cc1NC(=O)c1cscn1)c(OCC(F)(F)F)c(C(=O)NC1CCN(C(=O)CO)CC1)n2C [Example 56, 6-ethyl-N-[1-(hydroxyacetyl)piperidin-4-yl]-1-methyl-5-[(1,3-thiazol-4-ylcarbonyl)amino]-3-(2,2,2-trifluoroethoxy)-1H-pyrrolo[2,3-b]pyridine-2-carboxamide] — higher, 97%
- CCc1nc2c(cc1NC(=O)c1cc(C)nn1C)c(OCC(F)(F)F)c(C(=O)NC1CCN(C(=O)CO)CC1)n2C [Example 57, 5-{[(1,3-dimethyl-1H-pyrazol-5-yl)carbonyl]amino}-6-ethyl-N-[1-(hydroxyacetyl)piperidin-4-yl]-1-methyl-3-(2,2,2-trifluoroethoxy)-1H-pyrrolo[2,3-b]pyridine-2-carboxamide] — higher, 99%
- CCc1nc2sc(C(=O)NC3CCN(C(=O)CO)CC3)c(OCC(F)(F)F)c2cc1NC(=O)c1ccc(F)cc1 [Example 58, 6-ethyl-5-{[(4-fluorophenyl)carbonyl]amino}-N-[1-(hydroxyacetyl)piperidin-4-yl]-3-(2,2,2-trifluoroethoxy)thieno[2,3-b]pyridine-2-carboxamide] — higher, 97%
- CCc1nc2c(cc1NC(=O)c1ccc(Cl)s1)c(OC(C)C)c(C(=O)NC1CCN(C(=O)CO)CC1)n2C [Example 59, 5-{[(5-chlorothiophen-2-yl)carbonyl]amino}-6-ethyl-N-[1-(hydroxyacetyl)piperidin-4-yl]-1-methyl-3-(1-methylethoxy)-1H-pyrrolo[2,3-b]pyridine-2-carboxamide] — higher, 95%
- CCc1nc2c(cc1NC(=O)c1ccccc1)c(OC(C)C)c(C(=O)NCCS(=O)(=O)CCOC)n2C [Example 60, 6-ethyl-N-{2-[(2-methoxyethyl)sulfonyl]ethyl}-1-methyl-3-(1-methylethoxy)-5-[(phenylcarbonyl)amino]-1H-pyrrolo[2,3-b]pyridine-2-carboxamide] — higher, 95%
- CCc1nc2c(cc1NC(=O)c1ccsc1)c(OC(C)C)c(C(=O)NC1CCN(C(=O)CO)CC1)n2C [Example 61, 6-ethyl-N-[1-(hydroxyacetyl)piperidin-4-yl]-1-methyl-3-(1-methylethoxy)-5-[(thiophen-3-ylcarbonyl)amino]-1H-pyrrolo[2,3-b]pyridine-2-carboxamide] — higher, 98%
- CCc1nc2c(cc1NC(=O)c1cscc1OC)c(OC(C)C)c(C(=O)NC1CCN(C(=O)CO)CC1)n2C [Example 62, 6-ethyl-N-[1-(hydroxyacetyl)piperidin-4-yl]-5-{[(4-methoxythiophene-3-yl)carbonyl]amino}-1-methyl-3-(1-methylethoxy)-1H-pyrrolo[2,3-b]pyridine-2-carboxamide] — higher, 98%
